This passage reports IC50 and EC50 results from patent US9593149B2, “Amylin and calcitonin receptor agonist” (Novo Nordisk A/S, priority 2014, dated 2017).

In experiment [1] the target is T1, human amylin receptor (human calcitonin receptor + human RAMP3), BHK tk'ts 13 cells (Homo sapiens, UniProt O60896+P30988).
T1 construct: expressed in transfected cells; host or cells: BHK tk'ts 13
As to the kind of experiment: Assay (Va) binding to the human amylin receptor (whole cell). The conditions noted are these: read-out: hAmylin-R binding IC50. As for the experimental part: The day before the assay the cells were Seeded into Poly-D-Lysin coated 384W Opaque White, BD BioCoat plates (10000 cells/well) and Incubated overnight at 37° C., 5% CO2, 95% humidity.

Experiment [2] concerns the target T2, human calcitonin (a) receptor, BHK570 cells (Homo sapiens, UniProt P30988).
T2 construct: host or cells: BHK570
T2 sequence (P30988 25-474): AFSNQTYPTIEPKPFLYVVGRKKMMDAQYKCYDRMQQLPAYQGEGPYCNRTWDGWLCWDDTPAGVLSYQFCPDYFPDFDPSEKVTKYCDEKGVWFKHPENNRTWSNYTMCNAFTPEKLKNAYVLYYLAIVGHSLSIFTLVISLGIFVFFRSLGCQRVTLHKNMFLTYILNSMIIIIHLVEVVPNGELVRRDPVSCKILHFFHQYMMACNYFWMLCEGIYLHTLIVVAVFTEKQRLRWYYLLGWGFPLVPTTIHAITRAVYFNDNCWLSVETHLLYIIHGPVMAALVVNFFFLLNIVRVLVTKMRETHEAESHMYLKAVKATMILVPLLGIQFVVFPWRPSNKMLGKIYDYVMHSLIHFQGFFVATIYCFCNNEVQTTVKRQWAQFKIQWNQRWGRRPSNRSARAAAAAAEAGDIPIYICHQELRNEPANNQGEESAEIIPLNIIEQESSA
As to the kind of experiment: Assay (II)b functional CRE-luciferase assay without albumin, human calcitonin receptor. To be noted: Tested without HSA; read-out: hCTR funct. EC50. In kind it is cell-based. The procedure, abridged: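 BHK570 cells stably expressing human calcitonin receptor with CRE-luciferase reporter, plus RAMP-3 for the amylin 3(a) line. Cells stimulated 3 hours at 37 °C in albumin-free assay medium (0.1% ovalbumin, 10 mM Hepes pH 7.4); cAMP-driven luciferase read by luminescence.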

The target of experiment [3] is T3, human calcitonin receptor, BHK tk'ts 13 cells (Homo sapiens, UniProt P30988).
T3 construct: expressed in transfected cells; host or cells: BHK tk'ts 13
T3 sequence (P30988 25-474): T2 sequence (P30988 25-474)
As to the kind of experiment: Assay (VIIa) binding to the human calcitonin receptor (whole cell). The conditions noted are these: read-out: hCT-R binding IC50. The protocol: Assay (VIIa)—Determination of Binding to the Human Calcitonin Receptor (Whole Cell Binding)
The binding assay was performed using a BHK tk'ts 13 cell line was stably transfected with the human calcitonin receptor, and a CRE-responsive luciferase reporter gene.
The day before the assay the cells were Seeded into Poly-D-Lysin coated 384W Opaque White, BD BioCoat plates (10000 cells/well) and Incubated overnight at 37° C., 5% CO2, 95% humidity. Then, the cells were washed in HBSS (4° C.), and incubated overnight at 4° C. in a binding buffer containing test compounds, 50 pM [125I]-human calcitonin, media w/o phenol red, 500 ml 0.1% ovalbumin (5 ml 10% ovalbumin) 10 mM Hepes (5 ml 1M) 1× Glutamin (5 ml 100×) 1% P/S (5 ml 100%) Complete (1 tablet/50 ml) 0.1% Pluronic F68®. The morning after, the plates were washed three times in HBSS (4° C.), and lyzed in Lysis buffer (0.1 M NaOH), 1% SDS. Scintillation cocktail (MicroScint40®) was added and the plates were shaken at 500 rpm for a short period. The plate was incubated at room temperature in the dark for 1 hour and Read on a TopCounter™ (Packard). The IC50 was calculated using (one site binding competition analysis) GraphPad Prism5 as a measure of receptor affinity. Assay (VIII)—Determination of Binding to the Rat Calcitonin Receptor

Peptide text beside a SMILES is read from it.

The IC50 is the concentration at which inhibition is half-maximal. What is called EC50 is the concentration that produces a half-maximal response.

T1 sequence (O60896 24-148, one chain of several): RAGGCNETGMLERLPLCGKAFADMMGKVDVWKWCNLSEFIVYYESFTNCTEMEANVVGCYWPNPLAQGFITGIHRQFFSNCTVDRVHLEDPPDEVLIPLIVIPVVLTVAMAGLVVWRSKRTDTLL

As for `CC(C)C[C@H](NC(=O)[C@H](C)NC(=O)[C@H](C)NC(=O)[C@@H](NC(=O)[C@H](CO)NC(=O)[C@H](CC(C)C)NC(=O)[C@H](CCC(=O)O)NC(=O)[C@H](CO)NC(=O)[C@H](C)NC(=O)[C@@H](N)CCC(=O)O)[C@@H](C)O)C(=O)NCC(=O)N[C@@H](CCCNC(=N)N)C(=O)N[C@@H](CC(C)C)C(=O)N[C@@H](CO)C(=O)N[C@@H](C)C(=O)N[C@@H](CCC(=O)O)C(=O)N[C@@H](CC(C)C)C(=O)N[C@@H](Cc1c[nH]cn1)C(=O)N[C@@H](CCC(=O)O)C(=O)N[C@@H](CC(C)C)C(=O)N[C@@H](C)C(=O)N[C@H](C(=O)N[C@@H](CC(C)C)C(=O)N1CCC[C@H]1C(=O)N[C@@H](CCCNC(=N)N)C(=O)N[C@H](C(=O)N[C@@H](CCC(=O)O)C(=O)N[C@H](C(=O)NCC(=O)N[C@@H](CO)C(=O)NCC(=O)N[C@@H](CO)C(=O)N1CCC[C@H]1C(N)=O)[C@@H](C)O)[C@@H](C)O)[C@@H](C)O` [22bb, H—EASELSTAALGRLSAELHELATLPRTETGSGSP—NH2] (H-EASELSTAALGRLSAELHELATLPRTETGSGSP-NH2), the IC50 in experiment [1] worked out at 0.469 nM; in experiment [3], 0.481 nM. Also, the EC50 in experiment [2] came out at 0.002 nM.
